The results in this text go back to patent publication US7897582B2, “Oligonucleotide compositions and methods for the modulation of the expression of B7 protein” (Isis Pharmaceuticals, Inc., priority 2003, dated 2011).

e = 2'-O-(2-methoxyethyl) (MOE); d = 2'-deoxy (DNA)

The test system of data set [1] is ovalbumin-challenged Balb/c mice. Description: Ovalbumin-induced mouse model of allergic inflammation (Penh, BAL cells, histology, cytokines, spleen). It counts as in vivo. The method, then: In the mouse model of allergic inflammation, mice were sensitized and challenged with aerosolized chicken ovalbumin (OVA). Airway responsiveness was assessed by inducing airflow obstruction with a methacholine aerosol using a noninvasive method. This methodology utilized unrestrained conscious mice that are placed into the main chamber of a plthysmograph (Buxco Electronics, Inc., Troy, N.Y.). Pressure differences between this chamber and a reference chamber were used to extrapolate minute volume, breathing frequency and enhanced pause (Penh). Penh is a dimensionless parameter that is a function of total pulmonary airflow in mice (i.e., the sum of the airflow in the upper and lower respiratory tracts) during the respiratory cycle of the animal. The lower the Penh, the greater the airflow. This parameter closely correlates with lung resistance as measured by traditional invasive techniques using ventilated animals (Hamelmann . . . Gelfand, 1997). Dose-response data were plotted as raw Penh values to increasing concentrations of methacholine. […]
Female Balb/c mice (Charles Rivers Laboratory, Taconic Farms, N.Y.) were maintained in micro-isolator cages housed in a specific pathogen-free (SPF) facility. […] Animals were analyzed about 24 hours following the last nebulization using the Buxco electronics Biosystem. Lung function (Penh), lung histology (cell infiltration and mucus production), target mRNA reduction in the lung, inflammation (BAL cell type & number, cytokine levels), spleen weight and serum AST/ALT were determined. […]
Cytospins of cells recovered from BAL fluid were prepared using a Shandon Cytospin 3 (Shandon Scientific LTD, Cheshire, England). […] Total cell counts were quantified by hemocytometer and, together with the percent type by differential, were used to calculate specific cell number.
Before resection, lungs were inflated with 0.5 ml of 10% phosphate-buffered formalin and fixed overnight at 4° C. […] Parasagittal sections were analyzed by bright-field microscopy. Mucus cell content was assessed as the airway epithelium staining with PAS. […]

The subject of the next data set is B7.2 mRNA. In words: B7.2 mRNA in lung and draining lymph nodes of ovalbumin-challenged mice, quantitative RT-PCR. It counts as in vivo, mouse. The method, then: (§1) RNA was harvested from experimental lungs removed on day 28 of the OVA protocol. B7.2 and B7.1 levels were measured by quantitative RT-PCR using the Applied Biosystems PRISM 7700 Sequence Detection System (Applied Biosystems, Foster City, Calif.). Primers and probes used for these studies were synthesized by Operon Technologies (Alameda, Calif.).

Another data set relates to B7.1 mRNA. In words: B7.1 mRNA in lung and draining lymph nodes of ovalbumin-challenged mice, quantitative RT-PCR. Format: in vivo, mouse. The conditions noted are these: lung tissue and draining lymph nodes of allergen-challenged mice. Here is the method:
as §1

The test system of a further data set is B7-1 mRNA. Description: Mouse B7-1 target mRNA reduction in L-929 fibroblasts (RT-PCR). Format: cell-based. Particulars: 100 nM. Here is the method: Both of these oligonucleotides are phosphorothioates with 2′-MOE modifications on nucleotides 1-5 and 16-20, and 2′-deoxy at positions 6-15. These ASOs were identified by mouse-targeted ASO screening by target mRNA reduction in mouse cell lines. For B7-2, 19 mouse-targeted ASOs were screened by target mRNA reduction (Northern analysis) in IC-21 macrophages. Dose-response confirmation led to selection of ISIS 121874 (>70% reduction at 25 nM). For B7-1, 22 mouse-targeted ASOs were screened by target mRNA reduction (RT-PCR) in L-929 fibroblasts. Dose-response confirmation led to selection of ISIS 121844 (>70% reduction at 100 nM). No cross hybridization was predicted, and no cross-target reduction was detected in transfected cells.

For the substance “ISIS 121844: antisense oligonucleotide targeted to mouse B7.1; SEQ ID NO: 286; phosphorothioate, 2′-MOE on nucleotides 1-5 and 16-20 (antisense GCTCAGCCTTTCCACTTCAG; sugars from the 5' end e5 d10 e5, all phosphorothioate, methylation of C not given here)”, the allergen-induced airway eosinophilia entry in data set [1] (BAL fluid) is reported as “reduced”. Besides, the “airway response to methacholine (Penh response)” value in data set [1] (intratracheal ASO, days 15-26) is listed as “no effect”. Further, the “PMN numbers in BAL fluid” value in data set [1] (mouse, in vivo) is on record as “reduced”. For the same substance, in the data set on B7.2 mRNA (lung), the “reduction of B7.2 mRNA in the lung” value was 80%. Besides, the “B7.2 mRNA” value in the data set on B7.2 mRNA (lung tissue and draining lymph nodes of allergen-challenged mice) is listed as “reduced”. Moreover, the “B7.1 mRNA” value with B7.1 mRNA was “reduced”. In addition, the “target mRNA reduction” value in the data set with B7-1 mRNA was > 70%.
